We go through one compound from PMC10285260, “Processive kinetics in the three-step lanosterol 14α-demethylation reaction catalyzed by human cytochrome P450 51A1” (The Journal of Biological Chemistry, 2023).

One may read the koff as a measure of how fast the partners let go of each other. Higher therefore signals fast dissociation. A word on the Kd: it is the constant that tells how readily two partners part at equilibrium.

Values joined by “and” are separate entries in the source; they are usually repeats but may differ in a detail not shown here. Equal values may be shown once. Read-outs that look alike come from different tables or passages of the source.

Experiment [1] addresses T1, human P450 51A1 (Homo sapiens, UniProt Q16850).
T1 sequence (Q16850 1-509): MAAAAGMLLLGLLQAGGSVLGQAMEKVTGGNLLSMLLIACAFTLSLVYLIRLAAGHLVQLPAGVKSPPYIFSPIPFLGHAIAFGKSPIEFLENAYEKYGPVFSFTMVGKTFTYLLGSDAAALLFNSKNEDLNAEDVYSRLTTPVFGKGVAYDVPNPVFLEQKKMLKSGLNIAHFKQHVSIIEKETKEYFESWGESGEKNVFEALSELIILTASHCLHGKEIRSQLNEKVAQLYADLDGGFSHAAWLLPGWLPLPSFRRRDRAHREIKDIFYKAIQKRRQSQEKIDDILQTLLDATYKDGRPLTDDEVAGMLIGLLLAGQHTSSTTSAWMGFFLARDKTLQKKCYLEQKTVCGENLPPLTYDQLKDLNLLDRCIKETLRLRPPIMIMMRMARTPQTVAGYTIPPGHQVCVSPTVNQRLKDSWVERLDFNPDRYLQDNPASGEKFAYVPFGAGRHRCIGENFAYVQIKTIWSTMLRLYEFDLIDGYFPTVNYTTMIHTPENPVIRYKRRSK
Briefly: Stopped-flow koff measurements of P450 51A1-sterol complexes with ketoconazole trap. Also noted: made in house; host or cells: Escherichia coli. The note with it: 23 °C, 10 μM ketoconazole trap, 1 μM P450 51A1. Format: binding. As to the method: All assays were done at 23 °C in an OLIS-RSM 1000 stopped-flow spectrophotometer, collecting data every 1 ms over a range of 332 to 565 nm with slit widths of 1.24 mm (8 nm bandpass) and gratings with 400 lines/mm and 500 nm blaze. One syringe contained 20 μM ketoconazole dissolved in 100 mM potassium phosphate buffer (pH 7.4). In a preliminary experiment in which this was mixed with an equal volume of 2 μM P450 51A1 (same buffer), the observed rate of binding (ΔA430) was 25 s^−1.
P450 51A1 (2 μM) was premixed with an equivalent concentration of each of the sterols (in HPCD). Each of these solutions was placed in a drive syringe and rapidly mixed with 20 μM ketoconazole (yielding final concentrations of 1 μM P450 51A1 and 10 μM ketoconazole). The rate of the ΔA430-A390 change was used as the koff rate, that is, the rate at which the sterol left the P450 and allowed it to bind to the trap ligand ketoconazole.

Experiment [2] addresses T1, human P450 51A1. Briefly: Spectral (difference spectroscopy) Kd estimates of P450 51A1-sterol complexes. The note with it: 1.0 μM P450 51A1, quadratic fit. Format: binding. Also noted: made in house; host or cells: Escherichia coli. As to the method:
Kd values were estimated by difference spectroscopy. P450 51A1 (1.0 μM) was in each of two glass cuvettes (in 100 mM potassium phosphate buffer, pH 7.4) and a baseline was recorded (OLIS-Amino DW2a). Aliquots of a solution of each sterol–HPCD complex were added to the sample cuvette and an equivalent amount of HPCD was added to the reference cuvette, and spectra were recorded. The time between the collection of individual spectra was ∼3 min. The maximum absorbance difference (usually ΔA390-A418) was plotted versus the nominal concentration of added sterol, and the data were fit to hyperbolae in GraphPad Prism software (GraphPad, https://www.graphpad.com), using a quadratic equation to correct the ligand concentration for the enzyme-bound concentration (used as Y=B+(A/2)∗(1/E)∗((Kd+E+X)-sqrt((Kd + E+X)^∧2-(4∗E∗X)) in Prism software). The linear regression fits include the internal error estimates (SE).

The test system of experiment [3] is human P450 51A1. Put plainly: Kinetic modeling (KinTek Explorer) of the single-turnover time course. An excerpt: The initial koff rate constants used in fitting were the koff rates measured in the stopped-flow trap experiments (Fig. 9). All three oxidation reactions are irreversible, and thus k-2, k-4, and k-6 were set to zero.
Data were imported into KinTek Explorer software (v. 11.01, KinTek, https://kintekcorp.com/software) ([63], [64]) as txt files and processed using an Apple computer (operating system 11.6.2).

Experiment [4] addresses T1, human P450 51A1. Put plainly: Steady-state LC-UV assay of sterol oxidation to dihydro FF-MAS by reconstituted P450 51A1. The note with it: for Rate of FF-MAS formation (replicates): listed as 14-CHO dihydrolanosterol. As for the experimental part: Steady-state incubations (500 μl) were generally done at 37 °C with 0.025 μM P450 51A1, 0.10 μM NADPH-P450 reductase, 100 μM L-α-dilauroyl-sn-glycero-3-phosphocholine, 50 mM potassium phosphate buffer (pH 7.4), 10% (v/v) glycerol, and an indicated concentration of each sterol (in 45% (w/v) HPCD). […] The sterols (stored at 4 °C) were prepared as described above and were heated to 37 °C and sonicated prior to use. Sterol working stocks were diluted in HPCD to ensure a constant concentration of cyclodextrin in each reaction. […] Accordingly, all reactions were done with this concentration of glycerol.
Reactions were preincubated (5 min, 37 °C) prior to initiation with an NADPH-regenerating system (0.5 mM NADP^+, 10 mM glucose 6-phosphate, and 2 μg ml^−1 glucose 6-phosphate dehydrogenase) ([60]) and were stopped after 5 min with the addition of CH2Cl2 (5 ml). (The NADPH-generating system, in addition to lower cost than NADPH, drives the reaction to avoid inhibition of the reductase by accumulated NADP^+). For the 14α-aldehyde, the times of preincubation and reaction were reduced (to 2 min and 1 min, respectively). The quenched mixture was centrifuged (2000g, 5 min), and 4 ml of the bottom (organic) layer was transferred to vials and brought to dryness under a stream of N2 gas. The dried residue was resuspended in CH3OH (100 μl) and was analyzed by UPLC using a 2.1 mm × 100 mm (1.7 μm) octadecylsilane (C18) column (held at 25 °C) and a Waters Acquity UPLC system. Samples (4 °C) were injected (10 μl) at a flow rate of 0.20 ml min^−1 using an isocratic mobile phase of CH3CN (only). The product (FF-MAS) was detected using a Waters Acquity photodiode array detector set at 250 nm (Fig. 4B). Data were processed using the MassLynx software (http://www.waters.com/waters/en_US/MassLynx-Mass-Spectrometry-Software-/nav.htm?cid=513164&locale=en_US), and the amount of product formed was calculated by comparison to a twelve-point dihydro FF-MAS standard curve. Determination of kcat and Km for each reaction was carried out by fitting the data to a Michaelis–Menten hyperbola, which was done using GraphPad Prism.
Incubations were run in triplicate, and the mean values (±SD) were calculated and plotted. The linear regression fits include the Prism error estimates for internal fitting (SE).

As for `CC(C)CCCC(C)[C@H]1CC[C@@]2(C=O)C3=C(CC[C@]12C)[C@@]1(C)CC[C@H](O)C(C)(C)C1CC3` (stereo partly drawn) [14α-CHO dihydrolanosterol, 24,25-dihydro-14α-formyl lanosterol], the koff at human P450 51A1 [1] amounted to 0.059 ± 0.001 s⁻¹. Further, the results for the Kd result at human P450 51A1 [2] and at human P450 51A1 [2] (read-out: Kd) were “sub-μM” and 120 ± 30 nM, respectively. In addition, the “k^+ of sterol binding to P450 51A1 (kon) used for fitting” value in the experiment with human P450 51A1 [3] (all kon set at this value) was found to be 2e+06 M⁻¹ s⁻¹. The “k^- of oxidation step of the P450-sterol complex” value in the experiment on human P450 51A1 [3] (irreversible, set to zero) is 0. In the experiment on human P450 51A1 [3] (optimized model, label = sterol oxidized in the step), the “k^+ of oxidation step of the P450-sterol complex” value was found to be 2.5 s⁻¹. For the same compound, on human P450 51A1 [4] (oxidation to dihydro FF-MAS), the “kcat relative to dihydrolanosterol” value was “about 3 fold”. Further, the “kcat/Km relative to dihydrolanosterol” value on human P450 51A1 [4] (oxidation to dihydro FF-MAS) is given as “about 3 fold”. Moreover, the “Rate of FF-MAS formation (replicates)” value at human P450 51A1 [4] (substrate 0.25 µM) was 2.969 min⁻¹ and 3.528 min⁻¹ and 3.126 min⁻¹; at human P450 51A1 [4] (substrate 0.50 µM) it was 7.815 min⁻¹ and 6.139 min⁻¹ and 6.658 min⁻¹; at human P450 51A1 [4] (substrate 0.75 µM) it was 11.25 min⁻¹ and 9.099 min⁻¹ and 10.0823 min⁻¹; at human P450 51A1 [4] (substrate 1.00 µM), 13.4 min⁻¹ and 13.67 min⁻¹ and 13.3 min⁻¹; on human P450 51A1 [4] (substrate 1.50 µM), 18.85 min⁻¹ and 19.74 min⁻¹ and 19.25 min⁻¹; at human P450 51A1 [4] (substrate 2.50 µM) it was 28.46 min⁻¹ and 30.67 min⁻¹ and 32.21 min⁻¹. In addition, the “Rate of FF-MAS formation (replicates)” value on human P450 51A1 [4] (substrate 5.00 µM) was 52.7446 min⁻¹ and 50.4 min⁻¹ and 54.73 min⁻¹; at human P450 51A1 [4] (substrate 7.50 µM) it was 65.76 min⁻¹ and 62.41 min⁻¹ and 66.11 min⁻¹; on human P450 51A1 [4] (substrate 10.00 µM), 70.12 min⁻¹ and 63.34 min⁻¹ and 67.78 min⁻¹; on human P450 51A1 [4] (substrate 15.00 µM), 72.18 min⁻¹ and 76.97 min⁻¹ and 69.96 min⁻¹.
